Measured values taken from US6903104B2, “Indol-3-YL-2-oxoacetamide compounds and methods of use thereof” (National Health Research Institutes, priority 2001, dated 2005).

Test system: human colorectal SW480 tumor xenograft
Assay: Antitumor activity, human colorectal SW480 tumor xenograft
Format: in vivo, athymic nude mice
Protocol: Human colorectal SW480 cancer cells were subcutaneously implanted into the young male athymic nude mice at 1 million cells per mouse. The treatment schedule of 200 mg/kg daily oral administration for 6 weeks was initiated at the time which the tumor size reached 50˜100 mm^3. Compound was orally gavaged to the nude mice subcutaneously bearing human colorectal SW480 tumor xenograft based on the treatment schedule. The tumor size and body weight of the animals were monitored twice a week through out the 70-day period of observation. The tumor growth was suppressed by the daily oral treatments of compound 56. Tumor sizes of the treated and vehicle control groups were compared at the end of 70-day observation. The size of tumor mass subcutaneously implanted in the nude mice for the treated group was reduced to 26% compared to that of the vehicle control group at the end of the observation period.

Cc1cc(Cn2cc(C(=O)C(=O)Nc3cc(C)ns3)c3ccccc32)on1 [Compound 56]
size of tumor mass compared to that of the vehicle control group (200 mg/kg daily oral for 6 weeks, end of 70-day observation): 26% | tumor growth (200 mg/kg daily oral treatments): suppressed | toxicity as noted by loss of the body weight (oral multiple dosing, 200 mg/kg daily for 6 weeks): no obvious toxicity
